Here are results for 26 molecules from patent publication US8470810B2, “Heterocyclic compounds suitable for treating disorders that respond to modulation of the dopamine D3 receptor” (Abbott GmbH & Co. KG, priority 2004, dated 2013).

Test [1] deals with T1, human dopamine D3 receptors (Homo sapiens, UniProt P35462).
T1 construct: expressed in transfected cells
As to the kind of experiment: Dopamine D3 receptor binding, displacement of [125I]-iodosulpride. To be noted: for Ki: membranes of HEK-293 cells stably expressing human D3, 0.1 nM [125I]-iodosulpride, 25° C., 60 minutes; for Ki(D2)*/Ki(D3)*: selectivity ratio of the receptor binding constants D2 over D3. The procedure: (§1) The substance to be tested was either dissolved in methanol/Chremophor® (BASFAG) or in dimethyl sulfoxide and then diluted with water to the desired concentration.
(§2) Each assay mixture was run in triplicate.
The incubation buffer contained 50 mM tris, 120 mM NaCl, 5 mM KCl, 2 mM CaCl2, 2 mM MgCl2 and 0.1% bovine serum albumin, 10 μM quinolone and 0.1% ascorbic acid (prepared fresh daily). The buffer was adjusted to pH 7.4 with HCl.
(§3) After having been incubated at 25° C. for 60 minutes, the assay mixtures were filtered through a Whatman GF/B glass fiber filter under vacuum using a cell collecting device. The filters were transferred to scintillation viols using a filter transfer system. After 4 ml of Ultima Gold® (Packard) have been added, the samples were shaken for one hour and the radioactivity was then counted in a Beta-Counter (Packard, Tricarb 2000 or 2200CA). The cpm values were converted into dpm using a standard quench series and the program belonging to the instrument.
(§4) The inhibition curves were analyzed by means of iterative nonlinear regression analysis using the Statistical Analysis System (SAS) which is similar to the “LIGAND” program described by Munson and Rodbard.
(§5) The results of the receptro binding studies are expressed as receptor binding constants Ki(D2) and Ki(D3), respectively, as herein before described, and given in table 6.

Test [2] deals with T2, human dopamine D2L receptors (long isoform) (Homo sapiens, UniProt P14416).
T2 construct: expressed in transfected cells
T2 sequence (P14416 whole entry, canonical isoform): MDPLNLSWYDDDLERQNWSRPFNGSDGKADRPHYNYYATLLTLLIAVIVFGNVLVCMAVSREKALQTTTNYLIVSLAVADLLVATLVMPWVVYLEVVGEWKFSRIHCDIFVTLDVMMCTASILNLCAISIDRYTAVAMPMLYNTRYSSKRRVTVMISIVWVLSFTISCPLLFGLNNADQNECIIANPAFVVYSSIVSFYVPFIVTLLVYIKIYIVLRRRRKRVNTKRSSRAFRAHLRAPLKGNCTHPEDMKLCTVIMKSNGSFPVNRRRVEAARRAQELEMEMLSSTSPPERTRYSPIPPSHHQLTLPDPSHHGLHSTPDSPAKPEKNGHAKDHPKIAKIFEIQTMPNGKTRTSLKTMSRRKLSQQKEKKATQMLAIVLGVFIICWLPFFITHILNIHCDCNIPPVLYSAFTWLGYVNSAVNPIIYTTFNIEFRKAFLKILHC
The test can be described thus: Dopamine D2L receptor binding, displacement of [125I] iodospiperone. Conditions: membranes of HEK-293 cells stably expressing human D2L; 0.01 nM [125I] iodospiperone; 25° C., 60 minutes; read-out: Ki(D2)*. As to the method: as §1, §2
The incubation buffer contained 50 mM tris, 120 mM NaCl, 5 mM KCl, 2 mM CaCl2, 2 mM MgCl2 and 0.1% bovine serum albumin. The buffer was adjusted to pH 7.4 with HCl.
as §3, §4, §5

T1 sequence (P35462 whole entry): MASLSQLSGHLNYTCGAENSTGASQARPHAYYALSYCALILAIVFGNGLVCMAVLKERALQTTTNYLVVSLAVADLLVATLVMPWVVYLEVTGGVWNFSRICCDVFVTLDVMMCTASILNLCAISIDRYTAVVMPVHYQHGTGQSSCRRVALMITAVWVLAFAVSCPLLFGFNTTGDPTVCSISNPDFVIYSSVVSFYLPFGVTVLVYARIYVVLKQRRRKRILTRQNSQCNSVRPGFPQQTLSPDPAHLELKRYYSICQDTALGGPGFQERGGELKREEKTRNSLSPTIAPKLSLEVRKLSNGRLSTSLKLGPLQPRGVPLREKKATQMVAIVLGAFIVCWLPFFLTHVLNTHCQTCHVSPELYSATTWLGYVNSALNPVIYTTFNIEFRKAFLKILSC

In the case of `CCCN1CC(c2ccc(NS(=O)(=O)c3ccc(-c4cnco4)cc3)cc2)C1` [Example 55, 4-Oxazol-5-yl-N-[4-(1-propyl-azetidin-3-yl)-phenyl]-benzenesulfonamide], in test [1], the Ki was 0.00711 µM and the “Ki(D2)*/Ki(D3)*” value was determined as 165. Also, in test [2], the Ki came to 1.17 µM.

Regarding `CCCN1CC(c2ccc(NS(=O)(=O)c3ccc(CCF)cc3)cc2)C1` [Example 56, 4-(2-Fluoro-ethyl)-N-[4-(1-propyl-azetidin-3-yl)-phenyl]-benzenesulfonamide], the Ki came out at 0.0244 µM in test [1] and 2.66 µM in test [2]. Moreover, in test [1], the “Ki(D2)*/Ki(D3)*” value is 109.

With `CCCN1CC(c2ccc(NS(=O)(=O)c3ccc(CCCF)cc3)cc2)C1` [Example 57, 4-(3-Fluoro-propyl)-N-[4-(1-propyl-azetidin-3-yl)-phenyl]-benzenesulfonamide], in test [1], the Ki stood at 0.00718 µM and the “Ki(D2)*/Ki(D3)*” value stood at 123. In addition, the inhibition constant Ki in test [2] was found to be 0.88 µM.

Consider `CCCN1CC(c2ccc(NS(=O)(=O)c3ccc(Br)cc3)cc2)C1` [Example 58, 4-Bromo-N-[4-(1-propyl-azetidin-3-yl)-phenyl]-benzenesulfonamide], for which the Ki in test [1] is 0.0398 µM; in test [2], 2.94 µM.

With `CCCN1CC(c2ccc(NS(=O)(=O)c3ccc([C@@H](C)CF)cc3)cc2)C1` [Example 59, 4-((R)-2-Fluoro-1-methyl-ethyl)-N-[4-(1-propyl-azetidin-3-yl)-phenyl]-benzenesulfonamide], in test [1], the affinity, expressed as Ki, was 0.00641 µM and the “Ki(D2)*/Ki(D3)*” value is reported as 238. In addition, the Ki in test [2] stood at 1.53 µM.

In the case of `CCCN1CC(c2ccc(NS(=O)(=O)c3ccc([C@H](C)CF)cc3)cc2)C1` [Example 60, 4-((S)-2-Fluoro-1-methyl-ethyl)-N-[4-(1-propyl-azetidin-3-yl)-phenyl]-benzenesulfonamide], in test [1], the Ki is 0.00763 µM and the “Ki(D2)*/Ki(D3)*” value is on record as 1019. Moreover, the Ki in test [2] is 7.78 µM.

`CCCN1CC(c2ccc(NS(=O)(=O)c3ccc(CC(F)(F)F)cc3)cc2)C1` [Example 62, N-[4-(1-Propyl-azetidin-3-yl)-phenyl]-4-(2,2,2-trifluoro-ethyl)-benzenesulfonamide]: in test [1], the Ki stood at 0.0252 µM and the “Ki(D2)*/Ki(D3)*” value was 141. In addition, the Ki in test [2] came to 3.54 µM.

With `CCCN1CC(c2ccc(NS(=O)(=O)c3ccc(C(C)C(F)(F)F)cc3)cc2)C1` (stereo not shown) [Example 63, N-[4-(1-Propyl-azetidin-3-yl)-phenyl]-4-(2,2,2-trifluoro-1-methyl-ethyl)benzenesulfonamide], in test [1], the Ki is 0.00575 µM and the “Ki(D2)*/Ki(D3)*” value worked out at 113. In addition, in test [2], the inhibition constant Ki was 0.647 µM.

Consider `CCCN1CC(c2ccc(NS(=O)(=O)c3ccc(C(C)C(F)F)cc3)cc2)C1` (stereo not shown) [Example 64, 4-(2,2-Difluoro-1-methyl-ethyl)-N-[4-(1-propyl-azetidin-3-yl)-phenyl]-benzenesulfonamide], for which, in test [1], affinity was put at a Ki of 0.0021 µM and the “Ki(D2)*/Ki(D3)*” value came out at 164. The Ki in test [2] came to 0.344 µM.

Regarding `CCCN1CC[C@@H](c2ccc(NS(=O)(=O)c3ccc(-c4csnn4)cc3)cc2)C1` [Example 65, N-[4-((S)-1-Propyl-pyrrolidin-3-yl)-phenyl]-4-[1,2,3]thiadiazol-4-yl-benzenesulfonamide], in test [1], the affinity corresponds to a Ki of 0.00679 µM and the “Ki(D2)*/Ki(D3)*” value was 29. Besides, in test [2], the Ki was determined as 0.197 µM.

With `CCCN1CC[C@@H](c2ccc(NS(=O)(=O)c3ccc(N4CCCC4)cc3)cc2)C1` [Example 67, N-[4-((S)-1-Propyl-pyrrolidin-3-yl)-phenyl]-4-pyrrolidin-1-yl-benzenesulfonamide], the values for the Ki in test [1] and in test [2] were 0.00035 µM and 0.00388 µM, respectively. Besides, in test [1], the “Ki(D2)*/Ki(D3)*” value was 11.

On to `CCCN1CC[C@@H](c2ccc(NS(=O)(=O)c3ccc(SC(F)(F)F)cc3)cc2)C1` [Example 68, N-[4-((S)-1-Propyl-pyrrolidin-3-yl)-phenyl]-4-trifluoromethylsulfanyl-benzenesulfonamide], for which, in test [1], the Ki turned out to be 0.003 µM and the “Ki(D2)*/Ki(D3)*” value is on record as 47. In addition, the Ki in test [2] amounted to 0.142 µM.

On to `CCCN1CC[C@@H](c2ccc(NS(=O)(=O)c3ccc(-n4cccn4)cc3)cc2)C1` [Example 69, N-[4-((S)-1-Propyl-pyrrolidin-3-yl)-phenyl]-4-pyrazol-1-yl-benzenesulfonamide], for which, in test [1], the Ki worked out at 0.00251 µM and the “Ki(D2)*/Ki(D3)*” value turned out to be 36. For the same molecule, the Ki in test [2] was found to be 0.0903 µM.

`CCCN1CC[C@@H](c2ccc(NS(=O)(=O)c3ccc(-c4cnco4)cc3)cc2)C1` [Example 70, 4-Oxazol-5-yl-N-[4-((S)-1-propyl-pyrrolidin-3-yl)-phenyl]-benzenesulfonamide]: the inhibition constant (Ki) in test [1] turned out to be 0.00084 µM; in test [2], 0.0373 µM. Also, in test [1], the “Ki(D2)*/Ki(D3)*” value was 44.

Regarding `CCCN1CC[C@@H](c2ccccc2NS(=O)(=O)c2ccc(-c3cnco3)cc2)C1` [Example 71, 4-Oxazol-5-yl-N-[2-((S)-1-propyl-pyrrolidin-3-yl)-phenyl]-benzenesulfonamide], in test [1], the Ki is 0.00479 µM and the “Ki(D2)*/Ki(D3)*” value is reported as 11. Also, the Ki in test [2] came to 0.0523 µM.

Consider `CCCN1CC[C@@H](c2ccc(NS(=O)(=O)c3ccc(N4CCCC4=O)cc3)cc2)C1` [Example 72, 4-(2-Oxo-pyrrolidin-1-yl)-N-[4-((S)-1-propyl-pyrrolidin-3-yl)-Phenyl]-benzenesulfonamide], for which the values for the Ki in test [1] and in test [2] were 0.0351 µM and 0.473 µM, respectively. The “Ki(D2)*/Ki(D3)*” value in test [1] amounted to 13.

Consider `CCCN1CC[C@@H](c2ccc(NS(=O)(=O)c3ccc(-c4ccco4)cc3)cc2)C1` [Example 73, 4-Furan-2-yl-N-[4-((S)-1-propyl-pyrrolidin-3-yl)-phenyl]-benzenesulfonamide], for which the results for the Ki in test [1] and in test [2] were 0.00061 µM and 0.00673 µM, respectively.

With `CCCN1CC[C@@H](c2ccc(NS(=O)(=O)c3ccc(N4CCC4)cc3)cc2)C1` [Example 75, 4-Azetidin-1-yl-N-[4-((S)-1-propyl-pyrrolidin-3-yl)-phenyl]-benzenesulfonamide], the figures for the Ki in test [1] and in test [2] were 0.00063 µM and 0.0122 µM, respectively. The “Ki(D2)*/Ki(D3)*” value in test [1] is listed as 19.

In the case of `CCCN1CC[C@@H](c2ccc(NS(=O)(=O)c3ccc(C(C)C(F)F)cc3)cc2)C1` (stereo partly drawn) [Example 77, 4-(2,2-Difluoro-1-methyl-ethyl)-N-[4-((S)-1-propyl-pyrrolidin-3-yl)-phenyl]-benzenesulfonamide], in test [1], the Ki was 0.00133 µM and the “Ki(D2)*/Ki(D3)*” value came out at 37. The Ki in test [2] is 0.05 µM.

In the case of `CCCN1CC[C@@H](c2ccc(NS(=O)(=O)c3ccc(C(C)C(F)(F)F)cc3)cc2)C1` (stereo partly drawn) [Example 78, N-[4-((S)-1-Propyl-pyrrolidin-3-yl)-phenyl]-4-(2,2,2-trifluoro-1-methyl-ethyl)benzenesulfonamide], in test [1], the affinity corresponds to a Ki of 0.0014 µM and the “Ki(D2)*/Ki(D3)*” value came out at 30. The Ki in test [2] was determined as 0.0419 µM.

In the case of `CCCN1CC[C@@H](c2ccc(NS(=O)(=O)c3cc4ccccc4o3)cc2)C1` [Example 79, Benzofuran-2-sulfonic acid [4-((S)-1-propyl-pyrrolidin-3-yl)-phenyl]-amide], the Ki in test [1] is 0.0135 µM; in test [2], 1.11 µM. In addition, in test [1], the “Ki(D2)*/Ki(D3)*” value was 82.

In the case of `CCCN1CC[C@@H](c2ccc(NS(=O)(=O)c3ccc(-c4ccno4)s3)cc2)C1` [Example 80, 5-Isoxazol-5-yl-thiophene-2-sulfonic acid [4-((S)-1-propyl-pyrrolidin-3-yl)-phenyl]-amide], in test [1], the affinity corresponds to a Ki of 0.0376 µM and the “Ki(D2)*/Ki(D3)*” value is recorded as 29. Further, the Ki in test [2] came out at 1.1 µM.

As to `CCCN1CC[C@@H](c2ccc(NS(=O)(=O)c3ccc(-c4ccon4)s3)cc2)C1` [Example 81, 5-Isoxazol-3-yl-thiophene-2-sulfonic acid [4-((S)-1-propyl-pyrrolidin-3-yl)-phenyl]-amide], in test [1], the Ki is 0.0313 µM and the “Ki(D2)*/Ki(D3)*” value was 37. The Ki in test [2] came to 1.16 µM.

Consider `CCCN1CC[C@@H](c2ccc(NS(=O)(=O)c3ccc(-c4cnco4)s3)cc2)C1` [Example 82, 5-Oxazol-5-yl-thiophene-2-sulfonic acid [4-((S)-1-propyl-pyrrolidin-3-yl)-phenyl]-amide], for which, in test [1], the affinity corresponds to a Ki of 0.00559 µM and the “Ki(D2)*/Ki(D3)*” value worked out at 78. In addition, the Ki in test [2] stood at 0.437 µM.

For the molecule `CCN1CC[C@@H](c2ccc(NS(=O)(=O)c3ccc(C(C)C)cc3)cc2)C1` [Example 84, 4-Isopropyl-N-[4-((S)-1-ethyl-pyrrolidin-3-yl)-phenyl]-benzenesulfonamide], the Ki in test [1] stood at 0.00095 µM; in test [2], 0.0162 µM. In test [1], the “Ki(D2)*/Ki(D3)*” value stood at 17.

With `CC(C)c1ccc(S(=O)(=O)Nc2ccc([C@@H]3CCN(C)C3)cc2)cc1` [Example 85, 4-Isopropyl-N-[4-((S)-1-methyl-pyrrolidin-3-yl)-phenyl]-benzenesulfonamide], the results for the inhibition constant (Ki) in test [1] and in test [2] were 0.00057 µM and 0.0185 µM, respectively. For the same molecule, the “Ki(D2)*/Ki(D3)*” value in test [1] is 32.
